From article PMC4979060, “Structural basis of metallo-β-lactamase, serine-β-lactamase and penicillin-binding protein inhibition by cyclic boronates” (Nature Communications, 2016)
Values after ≈ are worked out from the molar mass of the structure shown. Like-named read-outs stand apart in the source and are kept apart here.

How the values were obtained:
[1] = biological target: T1, NDM-1 (Klebsiella pneumoniae, UniProt C7C422); assay: Fluorogenic β-lactamase inhibition assay (FC-5 substrate), NDM-1; type: biochemical; settings: for IC50: 10 min preincubation
T1 construct: made in house; host or cells: E. coli
Description: (§1) Kinetic and inhibition analyses, and ^19F NMR studies[10] against bacterial β-lactamases were performed as described. The FC-5 cephalosporin[9] was used as substrate for BcII, VIM-2, IMP-1, NDM-1, SPM-1, TEM-1 and OXA-10, meropenem[28] for CphA and nitrocefin[34] for PBP 3 and PBP 5.
(§2) In brief IC50 values were determined by preincubation of the appropriate amount of enzyme with the cyclic boronates in the assay buffers for 10 min at room temperature prior to the initiation of the assay by the addition of the appropriate substrate. The enzyme concentrations used are the following: 1 nM BcII, 100 nM VIM-2, 10 nM IMP-1, 10 nM NDM-1, 1 nM SPM-1, 1 nM TEM-1, 1 nM OXA-10, 2.5 nM CphA, 4 μM PBP 3 and 5 μM PBP 5; note that the final concentrations are stated. The assay buffers used are the following: 50 mM HEPES, pH 7.2 supplemented with 1 μg BSA, 1 μg ZnSO4 and 0.01% Triton for BcII, VIM-2, IMP-1, NDM-1 and SPM-1, 15 mM MES, pH 6.5 for CphA, 50 mM HEPES, pH 7.2 supplemented with 200 mM NaCl and 0.01% Triton 100 for TEM-1, 100 mM sodium phosphate, pH 7.2 supplemented with 50 mM NaHCO3 and 0.01% Triton 100 for OXA-10 and 50 mM HEPES, pH 7.2 supplemented with 200 mM NaCl and 0.01% Triton 100 for PBP 3 and PBP 5. The amount of substrates used is the following: 5 μM for BcII, VIM-2, IMP-1, NDM-1 and SPM-1, 10 μM for TEM-1 and OXA-10, 125 μM for CphA and 25 μM for PBP 3 and PBP 5; note that the final concentrations are stated.
(§3) The experiments were performed using a PHERAstar FS microplate reader (BMG Labtech) at room temperature (24–25 °C). All enzymes and inhibitors were prepared in the specific assay buffer. The kinetic values in this study are the means from at least three independent measurements; at least nine different concentrations of the inhibitor were used to determine the kinetic parameters (IC50). The IC50 values were determined using the software package Graph Prism 5.

[2] = biological target: T2, OXA-10 (Pseudomonas aeruginosa, UniProt P14489); assay: Fluorogenic β-lactamase inhibition assay (FC-5 substrate), OXA-10; type: biochemical; settings: for IC50: 10 min preincubation
T2 construct: made in house; host or cells: E. coli
Description: as §1, §2, §3

[3] = biological target: T3, IMP-1 (Serratia marcescens, UniProt P52699); assay: Fluorogenic β-lactamase inhibition assay (FC-5 substrate), IMP-1; type: biochemical
T3 construct: made in house; host or cells: E. coli
Description: as §1
In brief IC50 values were determined by preincubation of the appropriate amount of enzyme with the cyclic boronates in the assay buffers for 10 min at room temperature prior to the initiation of the assay by the addition of the appropriate substrate. The enzyme concentrations used are the following: 1 nM BcII, 100 nM VIM-2, 10 nM IMP-1, 10 nM NDM-1, 1 nM SPM-1, 1 nM TEM-1, 1 nM OXA-10, 2.5 nM CphA, 4 μM PBP 3 and 5 μM PBP 5; note that the final concentrations are stated. […]
The experiments were performed using a PHERAstar FS microplate reader (BMG Labtech) at room temperature (24–25 °C). […] The IC50 values were determined using the software package Graph Prism 5.

[4] = biological target: T4, VIM-2 (Escherichia coli, UniProt Q5U7L7); assay: Fluorogenic β-lactamase inhibition assay (FC-5 substrate), VIM-2; type: biochemical; settings: for IC50: 10 min preincubation
T4 construct: made in house; host or cells: E. coli
Description: as §1, §2, §3

[5] = biological target: T5, CphA (Aeromonas hydrophila, UniProt P26918); assay: B2 MBL inhibition assay (meropenem substrate), CphA; type: biochemical, Aeromonas hydrophilia; settings: for IC50: 10 min preincubation
T5 construct: made in house; host or cells: E. coli
Description: as §1, §2, §3

[6] = biological target: T6, PBP 3 (Pseudomonas aeruginosa, UniProt G3XD46); assay: PBP inhibition assay (nitrocefin substrate), PBP 3; type: biochemical; settings: NI = no inhibition at 100 μM, read-out: IC50 (μM)/pIC50 (converted)
T6 construct: made in house; host or cells: E. coli
Description: as §1, §2, §3

[7] = biological target: T7, TEM-1 (Escherichia coli, UniProt P62593); assay: Fluorogenic β-lactamase inhibition assay (FC-5 substrate), TEM-1; type: biochemical; settings: for IC50: 10 min preincubation
T7 construct: made in house; host or cells: E. coli
Description: as §1, §2, §3

[8] = biological target: SPM-1 (Pseudomonas aeruginosa, UniProt Q8G9Q0); assay: Fluorogenic β-lactamase inhibition assay (FC-5 substrate), SPM-1; type: biochemical; settings: for IC50: 10 min preincubation
Description: as §1, §2, §3

[9] = biological target: T8, BcII (Bacillus cereus, UniProt P04190); assay: Fluorogenic β-lactamase inhibition assay (FC-5 substrate), BcII; type: biochemical; settings: for IC50: 10 min preincubation
T8 construct: made in house; host or cells: E. coli
Description: as §1, §2, §3

[10] = system: K. pneumoniae Ecl8 pSU18; assay: MIC by broth microdilution; type: cell-based; settings: Klebsiella pneumoniae
Text: (§4) Bacterial strains: E. coli ATCC 25922 (ref. [35]) and K. pneumoniae NCTC 5055 (ref. [36]) were used as reference strains. K. pneumoniae Ecl8 (ref. [16]) and its ramR knock-out[37] were used as previously described. K. pneumoniae strain IR8 (ref. [40]), and E. coli strains IR10 and IR60 (ref. [17]) were generous gifts of Prof. T.R. Walsh. Plasmid pSU18:NDM-1 contains the complete blaNDM-1 open reading frame, together with its promoter, cloned into plasmid pSU18 (ref. [41]). The recombinant plasmid was made by PCR amplifying the blaNDM-1 gene and surrounding sequences from E. coli IR10 with primers NDM1F 5′- […] -3′ and NDM1R 5′- GGCGATGACAGCATCATC -3′, TA cloning the amplicon into pCR2.1 TOPO (Invitrogen) and subcloning into pSU18 using BamHI and XbaI.
(§5) MIC values were determined by broth microdilution, in triplicate, in cation-adjusted Mueller Hinton broth (Sigma) according to the Clinical Laboratory Standards Institute (CLSI) guidelines. Experiments were carried out in microtitre plates (Corning) containing the medium plus meropenem (Sequoia Research Products, Pangbourne, UK) and/or inhibitor 2 as appropriate. Chloramphenicol (20 μg ml^−1) was included in assays of strains (K. pneumoniae Ecl8 and derivative) that carried pSU18 plasmids or derivatives (pSU18:NDM-1) to ensure maintenance of plasmids throughout. Inhibitor 2 was dissolved in DMSO to 100 mg ml^−1 and diluted in broth. The final concentration of DMSO in the assays was kept constant at 0.01% (experiments using 10 μg ml^−1 inhibitor) or 0.03% (experiments using 25 μg ml^−1 inhibitor). Plates were incubated overnight at 37 °C for 18–24 h and absorbance at 600 nm read using a Polarstar Omega (BMG LabTech) plate reader.

[11] = system: K pneumoniae Ecl8 ΔramR pSU18; assay: MIC by broth microdilution; type: cell-based; settings: Klebsiella pneumoniae
Text: as §4, §5

[12] = system: E. coli IR10; assay: MIC by broth microdilution; type: cell-based; settings: Escherichia coli
Text: as §4, §5

[13] = system: E. coli IR60; assay: MIC by broth microdilution; type: cell-based; settings: Escherichia coli
Text: as §4, §5

[14] = system: K pneumoniae Ecl8 ΔramR pSU18:NDM-1; assay: MIC by broth microdilution; type: cell-based; settings: Ecl8 ΔramR pSU18:NDM-1; for MIC: Klebsiella pneumoniae; for Meropenem MIC (25 μg ml^−1 2): with 25 μg ml^−1 2
Text: as §4, §5

[15] = system: K. pneumoniae Ecl8 pSU18:NDM-1; assay: MIC by broth microdilution and checkerboard; type: cell-based; settings: for MIC: Klebsiella pneumoniae
Text: as §4, §5

[16] = system: K. pneumoniae IR8; assay: microbe, parasite or virus in culture; type: cell-based; settings: Klebsiella pneumoniae, K. pneumoniae IR8
Text: as §4, §5

SPM-1, sequence (Q8G9Q0 entry or part of it): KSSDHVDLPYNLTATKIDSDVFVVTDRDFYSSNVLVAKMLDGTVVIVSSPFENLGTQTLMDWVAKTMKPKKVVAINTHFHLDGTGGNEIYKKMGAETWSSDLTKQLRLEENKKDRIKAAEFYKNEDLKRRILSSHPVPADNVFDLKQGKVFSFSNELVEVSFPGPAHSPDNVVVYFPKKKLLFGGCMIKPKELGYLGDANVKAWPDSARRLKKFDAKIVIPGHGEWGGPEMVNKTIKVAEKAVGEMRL
T5 sequence (P26918 28-254): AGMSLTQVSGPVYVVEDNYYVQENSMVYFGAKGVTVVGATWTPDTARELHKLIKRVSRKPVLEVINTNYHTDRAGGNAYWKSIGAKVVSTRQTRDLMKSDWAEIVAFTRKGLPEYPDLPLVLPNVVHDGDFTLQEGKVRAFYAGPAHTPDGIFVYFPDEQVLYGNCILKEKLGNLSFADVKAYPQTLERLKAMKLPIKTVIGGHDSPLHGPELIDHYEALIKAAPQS
T8 sequence (P04190 31-257): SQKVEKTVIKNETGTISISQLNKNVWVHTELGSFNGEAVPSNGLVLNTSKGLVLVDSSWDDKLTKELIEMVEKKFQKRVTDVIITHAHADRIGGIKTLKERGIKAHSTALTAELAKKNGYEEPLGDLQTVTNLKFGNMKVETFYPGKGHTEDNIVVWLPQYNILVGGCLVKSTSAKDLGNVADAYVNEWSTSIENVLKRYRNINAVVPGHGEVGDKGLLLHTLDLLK
T1 sequence (C7C422 29-270, looked up, species assumed): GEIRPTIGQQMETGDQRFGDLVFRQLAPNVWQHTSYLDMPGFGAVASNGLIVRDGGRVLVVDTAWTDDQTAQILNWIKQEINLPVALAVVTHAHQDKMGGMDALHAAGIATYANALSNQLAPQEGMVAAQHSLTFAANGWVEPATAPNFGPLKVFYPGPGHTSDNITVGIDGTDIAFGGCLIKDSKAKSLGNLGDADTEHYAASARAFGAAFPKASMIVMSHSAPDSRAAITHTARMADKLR
T2 sequence (P14489 20-266, species assumed): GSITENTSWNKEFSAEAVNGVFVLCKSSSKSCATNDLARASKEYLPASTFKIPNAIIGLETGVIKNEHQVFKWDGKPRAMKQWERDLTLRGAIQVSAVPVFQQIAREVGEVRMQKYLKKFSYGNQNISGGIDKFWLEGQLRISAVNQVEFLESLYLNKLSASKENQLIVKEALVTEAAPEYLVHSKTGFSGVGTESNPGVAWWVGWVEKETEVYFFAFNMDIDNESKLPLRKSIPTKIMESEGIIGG
T7 sequence (P62593 24-286 limits assumed): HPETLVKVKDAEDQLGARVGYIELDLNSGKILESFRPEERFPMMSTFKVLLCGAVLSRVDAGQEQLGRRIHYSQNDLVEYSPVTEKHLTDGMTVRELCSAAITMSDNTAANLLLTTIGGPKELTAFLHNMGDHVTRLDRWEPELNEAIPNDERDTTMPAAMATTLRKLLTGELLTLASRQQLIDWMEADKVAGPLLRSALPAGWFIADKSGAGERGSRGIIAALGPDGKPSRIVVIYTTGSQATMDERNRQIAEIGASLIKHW
T6 sequence (G3XD46 whole entry): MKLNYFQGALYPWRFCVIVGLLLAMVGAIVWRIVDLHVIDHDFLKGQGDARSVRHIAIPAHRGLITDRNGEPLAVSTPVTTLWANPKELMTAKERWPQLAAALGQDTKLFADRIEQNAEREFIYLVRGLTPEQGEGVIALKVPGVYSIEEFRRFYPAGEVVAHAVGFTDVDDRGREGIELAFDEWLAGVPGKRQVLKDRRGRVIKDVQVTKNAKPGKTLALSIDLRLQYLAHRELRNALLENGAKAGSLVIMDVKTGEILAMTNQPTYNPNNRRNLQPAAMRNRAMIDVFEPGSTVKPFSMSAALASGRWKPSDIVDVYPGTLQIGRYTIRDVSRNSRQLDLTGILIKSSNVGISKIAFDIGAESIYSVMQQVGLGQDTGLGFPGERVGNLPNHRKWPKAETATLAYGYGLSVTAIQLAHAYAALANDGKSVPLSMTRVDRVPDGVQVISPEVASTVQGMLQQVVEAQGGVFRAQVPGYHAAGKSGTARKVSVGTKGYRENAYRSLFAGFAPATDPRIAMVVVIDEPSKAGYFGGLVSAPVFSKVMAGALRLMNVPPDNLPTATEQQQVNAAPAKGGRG
T3 sequence (P52699 19-246, looked up, species assumed): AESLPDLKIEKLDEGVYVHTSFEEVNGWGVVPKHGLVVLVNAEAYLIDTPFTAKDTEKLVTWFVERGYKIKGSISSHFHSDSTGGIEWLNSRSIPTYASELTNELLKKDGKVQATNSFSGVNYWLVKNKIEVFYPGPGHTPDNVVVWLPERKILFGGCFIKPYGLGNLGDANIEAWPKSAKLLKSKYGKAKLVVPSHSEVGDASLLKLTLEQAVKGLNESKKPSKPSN

O=C(N[C@H]1Cc2cccc(C(=O)O)c2O[B-]1(O)O)c1ccc(CN2CCNCC2)cc1 [compound 4]
IC50 [1]: 40 nM
pIC50 [2]: 5.6
IC50 [2]: 2260 nM
pIC50 [3]: 4.7
pIC50 [4]: 7.8
IC50 [4]: 14 nM
pIC50 [5]: > 4
IC50 [5]: > 100000 nM
IC50 [6]: > 100 µM
pIC50 [7]: 9.4
IC50 [7]: 0.3 nM
pIC50 [8]: 4.8
IC50 [8]: 13900 nM
pIC50 [9]: 6.2
IC50 [9]: 520 nM

C[C@@H](O)[C@H]1C(=O)N2C(C(=O)O)=C(S[C@@H]3CN[C@H](C(=O)N(C)C)C3)[C@H](C)[C@H]12 [Meropenem, meropenem]
MIC ([10]; ECL8PSU18, read-out: Meropenem MIC): ≤ 0.25 µg/mL
MIC ([10]; ECL8PSU18, read-out: Meropenem MIC (10 μg ml^−1 2)): ≤ 0.25 µg/mL
MIC ([10]; ECL8PSU18, read-out: Meropenem MIC (25 μg ml^−1 2)): ≤ 0.25 µg/mL
MIC ([11]; read-out: Meropenem MIC): ≤ 0.25 µg/mL
MIC ([11]; read-out: Meropenem MIC (10 μg ml^−1 2)): ≤ 0.25 µg/mL
MIC ([11]; read-out: Meropenem MIC (25 μg ml^−1 2)): ≤ 0.25 µg/mL
MIC ([12]; IR10, read-out: Meropenem MIC): 128 µg/mL (≈ 334 µM)
MIC ([12]; IR10, read-out: Meropenem MIC (10 μg ml^−1 2)): 8 µg/mL (≈ 20.9 µM)
MIC ([12]; IR10, read-out: Meropenem MIC (25 μg ml^−1 2)): 2 µg/mL (≈ 5.22 µM)
MIC ([13]; IR60, read-out: Meropenem MIC): 64 µg/mL (≈ 167 µM)
MIC ([13]; IR60, read-out: Meropenem MIC (10 μg ml^−1 2)): 16 µg/mL (≈ 41.7 µM)
MIC ([13]; IR60, read-out: Meropenem MIC (25 μg ml^−1 2)): 16 µg/mL (≈ 41.7 µM)
MIC ([14]; read-out: Meropenem MIC (10 μg ml^−1 2), with 10 μg ml^−1 2): 16 µg/mL (≈ 41.7 µM)
MIC ([14]; read-out: Meropenem MIC, meropenem alone): > 128 µg/mL
Meropenem MIC (25 μg ml^−1 2) [14]: 2 µg/mL
Meropenem MIC (25 μg ml^−1 2) ([14]; listed as meropenem): < 8 µg/mL
MIC ([15]; read-out: Meropenem MIC (10 μg ml^−1 2), with 10 μg ml^−1 2, Ecl8 pSU18:NDM-1): 8 µg/mL
MIC ([15]; read-out: Meropenem MIC (25 μg ml^−1 2), with 25 μg ml^−1 2, Ecl8 pSU18:NDM-1): < 8 µg/mL
MIC ([15]; read-out: Meropenem MIC, checkerboard, 2 at 0 μg mL-1): 128 µg/mL
MIC ([15]; read-out: Meropenem MIC, checkerboard, 2 at 0.5 μg mL-1): 64 µg/mL
MIC ([15]; read-out: Meropenem MIC, checkerboard, 2 at 1 μg mL-1): 32 µg/mL
MIC ([15]; read-out: Meropenem MIC, checkerboard, 2 at 2 μg mL-1): 32 µg/mL
MIC ([15]; read-out: Meropenem MIC, checkerboard, 2 at 4 μg mL-1): 16 µg/mL
MIC ([15]; read-out: Meropenem MIC, checkerboard, 2 at 8 μg mL-1): 8 µg/mL
MIC ([15]; read-out: Meropenem MIC, checkerboard, 2 at 16 μg mL-1): 4 µg/mL
MIC ([15]; read-out: Meropenem MIC, checkerboard, 2 at 32 μg mL-1): 2 µg/mL
MIC ([15]; read-out: Meropenem MIC, checkerboard, 2 at 64 μg mL-1): ≤ 1 µg/mL
MIC ([15]; read-out: Meropenem MIC, meropenem alone, Ecl8 pSU18:NDM-1): > 128 µg/mL
Meropenem MIC (25 μg ml^−1 2) ([15]; with 25 μg ml^−1 2, Ecl8 pSU18:NDM-1): 4 µg/mL
MIC ([16]; meropenem alone, read-out: Meropenem MIC): 128 µg/mL (≈ 334 µM)
MIC ([16]; with 10 μg ml^−1 2, read-out: Meropenem MIC (10 μg ml^−1 2)): 32 µg/mL (≈ 83.4 µM)
MIC ([16]; with 25 μg ml^−1 2, read-out: Meropenem MIC (25 μg ml^−1 2)): 16 µg/mL (≈ 41.7 µM)

NCC1CCC(C(=O)N[C@H]2Cc3cccc(C(=O)O)c3O[B-]2(O)O)CC1 (some centres unmarked) [compound 3]
pIC50 [1]: 6.1
IC50 [1]: 687 nM
pIC50 [2]: 6.0
IC50 [2]: 830 nM
pIC50 [4]: 7.9
IC50 [4]: 11 nM
pIC50 [5]: 4.68
IC50 [5]: 20800 nM
IC50 [6]: > 100 µM
pIC50 [7]: 8.5
IC50 [7]: 2 nM
pIC50 [8]: 4.8
IC50 [8]: 16000 nM
pIC50 [9]: 6.0
IC50 [9]: 960 nM
